Activity calls are given as the source filed them. How the calls were made is not given here.
System: CCRIS mutagenicity, Ames/micronucleus/aberration tests
Assay: CCRIS mutagenicity studies

[Cl][V]([Cl])[Cl]
mutagenic call (Test System: AMES SALMONELLA TYPHIMURIUM, Strain/Indicator: TA98, Metabolic Activation: NONE, Method: PREINCUBATION): inactive; negative | mutagenic call (Test System: AMES SALMONELLA TYPHIMURIUM, Strain/Indicator: TA98, Metabolic Activation: RAT LIVER S-9, PHENOBARBITAL AND BETA-NAPHTHOFLAVONE, Method: PREINCUBATION): inactive; negative | mutagenic call (Test System: AMES SALMONELLA TYPHIMURIUM, Strain/Indicator: TA100, Metabolic Activation: NONE, Method: PREINCUBATION): inactive; negative | mutagenic call (Test System: AMES SALMONELLA TYPHIMURIUM, Strain/Indicator: TA100, Metabolic Activation: RAT LIVER S-9, PHENOBARBITAL AND BETA-NAPHTHOFLAVONE, Method: PREINCUBATION): inactive; negative | mutagenic call (Test System: AMES SALMONELLA TYPHIMURIUM, Strain/Indicator: TA1535, Metabolic Activation: NONE, Method: PREINCUBATION): inactive; negative | mutagenic call (Test System: AMES SALMONELLA TYPHIMURIUM, Strain/Indicator: TA1535, Metabolic Activation: RAT LIVER S-9, PHENOBARBITAL AND BETA-NAPHTHOFLAVONE, Method: PREINCUBATION): inactive; negative | mutagenic call (Test System: AMES SALMONELLA TYPHIMURIUM, Strain/Indicator: TA1537, Metabolic Activation: NONE, Method: PREINCUBATION): inactive; negative | mutagenic call (Test System: AMES SALMONELLA TYPHIMURIUM, Strain/Indicator: TA1537, Metabolic Activation: RAT LIVER S-9, PHENOBARBITAL AND BETA-NAPHTHOFLAVONE, Method: PREINCUBATION): inactive; negative | mutagenic call (Test System: AMES SALMONELLA TYPHIMURIUM, Strain/Indicator: TA1538, Metabolic Activation: NONE, Method: PREINCUBATION): inactive; negative | mutagenic call (Test System: AMES SALMONELLA TYPHIMURIUM, Strain/Indicator: TA1538, Metabolic Activation: RAT LIVER S-9, PHENOBARBITAL AND BETA-NAPHTHOFLAVONE, Method: PREINCUBATION): inactive; negative | mutagenic call (Test System: E.COLI, Strain/Indicator: WP2UVRA, Metabolic Activation: NONE, Method: PREINCUBATION): inactive; negative | mutagenic call (Test System: E.COLI, Strain/Indicator: WP2UVRA, Metabolic Activation: RAT LIVER S-9, PHENOBARBITAL AND BETA-NAPHTHOFLAVONE, Method: PREINCUBATION): inactive; negative

c1ccc(COc2cccc3cccnc23)cc1
mutagenic call (Test System: AMES SALMONELLA TYPHIMURIUM, Strain/Indicator: TA100, Metabolic Activation: S-9, Method: PREINCUBATION): inactive; negative

Cc1nc2ccc(NCCN(C)C)c3c(=O)c4cc(O)ccc4n1c23
mutagenic call (Test System: CHINESE HAMSTER V-79, Strain/Indicator: V-79 (HGPRT)/6-THIOGUANINE, Metabolic Activation: NONE): active; positive

O=C1c2ccc(O)cc2C(=O)c2ccc(O)cc21
mutagenic call (Test System: AMES SALMONELLA TYPHIMURIUM, Strain/Indicator: TA98, Metabolic Activation: NONE, Method: STANDARD PLATE): inactive; negative | mutagenic call (Test System: AMES SALMONELLA TYPHIMURIUM, Strain/Indicator: TA98, Metabolic Activation: RAT, LIVER, S-9, AROCLOR 1254, Method: STANDARD PLATE): inactive; negative | mutagenic call (Test System: AMES SALMONELLA TYPHIMURIUM, Strain/Indicator: TA100, Metabolic Activation: NONE, Method: STANDARD PLATE): inactive; negative | mutagenic call (Test System: AMES SALMONELLA TYPHIMURIUM, Strain/Indicator: TA100, Metabolic Activation: RAT, LIVER, S-9, AROCLOR 1254, Method: STANDARD PLATE): inactive; negative | mutagenic call (Test System: AMES SALMONELLA TYPHIMURIUM, Strain/Indicator: TA1535, Metabolic Activation: NONE, Method: STANDARD PLATE): inactive; negative | mutagenic call (Test System: AMES SALMONELLA TYPHIMURIUM, Strain/Indicator: TA1535, Metabolic Activation: RAT, LIVER, S-9, AROCLOR 1254, Method: STANDARD PLATE): inactive; negative | mutagenic call (Test System: AMES SALMONELLA TYPHIMURIUM, Strain/Indicator: TA1538, Metabolic Activation: NONE, Method: STANDARD PLATE): inactive; negative | mutagenic call (Test System: AMES SALMONELLA TYPHIMURIUM, Strain/Indicator: TA1538, Metabolic Activation: RAT, LIVER, S-9, AROCLOR 1254, Method: STANDARD PLATE): inactive; negative
